The record followed here is BindingDB's records for doi:10.1021/jm960573f (University of Washington, 1997).

The assay is described as follows: Binding affinity was determined in a crude membrane preparation from guinea pig brain by displacement of [3H]DPDPE from Opioid receptor delta 1. Background: Displacement assays read how much labelled ligand stays bound in the presence of the test substance.

pKi: −log10 of the molar value. “And” between values parts separate entries of the source, which are not always exact repeats. Equal values may be shown once.

Usually pKi stands for −log10 of the Ki, conventionally taken in molar units. A higher pKi goes with a small Ki. `O=C1C(=Cc2c3ccccc3cc3ccccc23)C[C@@]2(O)[C@H]3Cc4ccc(O)c5c4C2(CCN3CC2CC2)[C@H]1O5`: the negative logarithm of the Ki (pKi) is 8.62 and 7.77.
Regarding `O=C1C(=Cc2ccc(-c3ccccc3)cc2)C[C@@]2(O)[C@H]3Cc4ccc(O)c5c4C2(CCN3CC2CC2)[C@H]1O5`, the negative logarithm of the Ki (pKi) is 7.12 and 7.33.
Regarding `O=C1/C(=C\c2ccccc2)C[C@@]2(O)[C@H]3Cc4ccc(O)c5c4[C@@]2(CCN3CC2CC2)[C@H]1O5`, the negative logarithm of the Ki (pKi) was 8.43.
For `O=C1C(=Cc2cccc3ccccc23)C[C@@]2(O)[C@H]3Cc4ccc(O)c5c4C2(CCN3CC2CC2)[C@H]1O5` [4-cyclopropylmethyl-10,17-dihydroxy-15-[1-(1-naphthyl)-(Z)-methylidene]-(5R,13R,17S)-12-oxa-4-azapentacyclo[9.6.1.01,13.05,17.07,18]octadeca-7(18),8,10-trien-14-one], the pKi is 8.34 and 9.15.
`O=C1C(=Cc2ccc3ccccc3c2)C[C@@]2(O)[C@H]3Cc4ccc(O)c5c4C2(CCN3CC2CC2)[C@H]1O5` [4-cyclopropylmethyl-10,17-dihydroxy-15-[1-(2-naphthyl)-(E)-methylidene]-(5R,13R,17S)-12-oxa-4-azapentacyclo[9.6.1.01,13.05,17.07,18]octadeca-7(18),8,10-trien-14-one] showed a pKi of 7.41.
The compound `O=C1/C(=C/c2ccccc2)C[C@@]2(O)[C@H]3Cc4ccc(O)c5c4[C@@]2(CCN3CC2CC2)[C@H]1O5` [7-Benzylidenenaltrexone] showed a negative-log Ki (pKi) of 8.21.
